Measurements published in publication PMC12494099, “Discovery and Characterization of Novel IKZF1/3 Glue Degraders against Multiple Hematological Cancer Cell Lines” (Oncology Research, 2025).

Legend:
Assay type in all cases: cell-based
[1] = system: CRBN^−/− MV-4-11 cells; assay: Cell viability, CRBN knockout cells; settings: Homo sapiens, MV4-11, 96 h
Method: (§1) Multiple cell lines (NCI-H929, OPM-2, U937, Ocl-Ly3, RPMI-8226, MOLM-13, Skm-1, MUTZ-1, SU-DHL-4, TMD8, U2932, WSU-DLCL-2, MV-4-11 and KG-1 cells) were plated into 96-well plates. The plated at a density of 15,000 cells per well, and each well contained 100 µL of medium. Subsequently, different compounds (MGD-AX, MGD-BX, MGD-CX) were added to each well. These compounds’ concentrations were set at 0, 0.01, 0.033, 0.1, 0.33, 1, 3.3, 10 and 33 μM, and the cells were incubated with the compounds for 96 h. To evaluate the antiproliferative effects of these compounds, the Cell Counting Kit-8 (CCK-8, #CX007, Epizyme, Shanghai, China) was used. All procedures were carried out in strict accordance with the manufacturer’s instructions (Dojindo Laboratories, Mamoto Ken, Japan). The half maximal inhibitory concentrations (IC50) values, which represent the concentrations of the test compounds that can inhibit 50% of cell activity, were calculated using GraphPad Prism 8.0 (GraphPad Software Inc., San Diego, CA, USA).
(§2) […] NCI-H929 and MV-4-11 cells were seeded at a density of 1 × 10^6 cells/well in 6-well tissue culture-treated plates. According to the manufacturer’s protocol (Santa Cruz Biotechnology, Inc, Dallas, TX, USA), CRBN CRISPR/Cas9 knockout Plasmid (#sc-412142), CRBN HDR plasmid (#sc-412142-HDR), UltraCruz® Transfection Reagent (#sc-395739) were pre-mixed in Plasmid Transfection Medium (#sc-108062) at a 1:1:2 mass ratio, and cells were transiently transfected in a 37°C, 5% CO2 incubator. After 72 h of infection, the medium was replaced with complete medium containing 3 μg/mL puromycin for 5–7 days. On day 7, GFP-positive cells were sorted as single cells into 96-well plates. Isolated single-cell clones were screened via western blot analysis, using wild-type NCI-H929 or MV-4-11 cells as positive controls.

[2] = system: CRBN^−/− NCI-H929 cells; assay: Cell viability, CRBN knockout cells; settings: Homo sapiens, NCI-H929, 96 h
Method: as §1, §2

[3] = system: NCI-H929; assay: Cell apoptosis assay (Annexin V flow cytometry); settings: NCI-H929, 1 and 10 µM
Method: (§3) Cells (NCI-H929 and MV-4-11) were seeded at a density of 1 × 10^6 cells per well into 6-well dishes. […] Apoptosis was assessed using an Annexin V-FITC kit (#ab14085; Abcam, MA, USA) on a FACS Calibur Flow Cytometer (Becton Dickinson, Franklin Lakes, NJ, USA). For cell cycle analysis, cells were fixed in 75% ethanol (−20°C/overnight), washed with PBS (pH = 7.2–7.4, 1×), treated with RNase A (0.2 mg/mL, 37°C/30 min), stained with PI (10 μg/mL), and analyzed on the same instrument. Finally, the samples were analyzed using a FACS Calibur Flow Cytometer.

[4] = system: MV-4-11; assay: Cell apoptosis assay (Annexin V flow cytometry)
Method: as §3

[5] = system: Skm-1; assay: Cell viability (CCK-8) assay; settings: Homo sapiens, SKM-1; AML, 96 h; read-out: IC50 (μM) Skm-1
Summary of the method: (§4)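 Cells were seeded at 15,000 per well and then treated with the test compounds. Antiproliferative effects were measured using a CCK-8 colorimetric viability kit, following the manufacturer's protocol.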

[6] = system: MOLM-13; assay: Cell viability (CCK-8) assay; settings: Homo sapiens, MOLM-13; AML, 96 h; read-out: IC50 (μM) MOLM-13
Summary of the method: as §4

[7] = system: MUTZ-1; assay: Cell viability (CCK-8) assay; settings: AML, 96 h; read-out: IC50 (μM) MUTZ-1
Summary of the method: as §4

[8] = system: U937; assay: Cell viability (CCK-8) assay; settings: Homo sapiens, U-937; AML, 96 h; read-out: IC50 (μM) U937
Summary of the method: as §4

[9] = system: TMD8; assay: Cell viability (CCK-8) assay; settings: Homo sapiens, TMD8; DLBCL, 96 h; read-out: IC50 (μM) TMD8
Summary of the method: as §4

[10] = system: KG-1; assay: Cell viability (CCK-8) assay; settings: Homo sapiens, KG-1; AML, 96 h; read-out: IC50 (μM) KG-1
Summary of the method: as §4

[11] = system: SU-DHL-4; assay: Cell viability (CCK-8) assay; settings: Homo sapiens, SU-DHL-4; DLBCL, 96 h; read-out: IC50 (μM) SU-DHL-4
Summary of the method: as §4

[12] = system: U2932; assay: Cell viability (CCK-8) assay; settings: Homo sapiens, U2932; DLBCL, 96 h; read-out: IC50 (μM) U2932
Summary of the method: as §4

[13] = system: control vector MV-4-11 cells; assay: Cell viability, control vector cells; settings: Homo sapiens, MV4-11, 96 h
Method: as §1, §2

[14] = system: control vector NCI-H929 cells; assay: Cell viability, control vector cells; settings: Homo sapiens, NCI-H929, 96 h
Method: as §1, §2

[15] = biological target: T1, IKZF1-HiBiT (Homo sapiens, UniProt Q13422+Q96SW2); assay: Quantitative degradation assay using the HiBiT system (HEK293T); settings: for reduction in IKZF1: 1 μM, time course; for DC50 / Dmax: HEK293T IKZF1-HiBiT, 24 h; for Dmax: HEK-293T, read-out: maximal degradation (Dmax) on IKZF1
T1 construct: expressed in transfected cells; host or cells: HEK293T
Method: (§5) An in vitro quantitative degradation assay utilizing the HiBiT system was carried out as previously described. To evaluate the degradation of IKZF1, IKZF2, and IKZF3 proteins, HEK293T cell lines stably expressing IKZF1-, IKZF2-, IKZF3-, GSPT1- or CK1α-HiBiT were cultured in 96-well plates at 12,000 cells per well. […] After the treatment, cell lysis was carried out using the Nano-Glo HiBiT Lytic Detection System (#N3040, Promega). All lysis operations were strictly carried out according to the manufacturer’s specific protocol. Then, the SpectraMax iD3 instrument (Molecular Devices, San Jose, CA, USA) was used to detect the luminescent signals released by the HiBiT-tagged neosubstrates.

[16] = biological target: T2, IKZF3-HiBiT (Homo sapiens, UniProt Q96SW2+Q9UKT9); assay: as above; settings: for reduction in IKZF3: 1 μM, time course; for DC50 / Dmax: HEK293T IKZF3-HiBiT, 24 h; for Dmax: HEK-293T, read-out: maximal degradation (Dmax) on IKZF3
T2 construct: expressed in transfected cells; host or cells: HEK293T
Method: as §5

T2 sequence (Q9UKT9 whole entry): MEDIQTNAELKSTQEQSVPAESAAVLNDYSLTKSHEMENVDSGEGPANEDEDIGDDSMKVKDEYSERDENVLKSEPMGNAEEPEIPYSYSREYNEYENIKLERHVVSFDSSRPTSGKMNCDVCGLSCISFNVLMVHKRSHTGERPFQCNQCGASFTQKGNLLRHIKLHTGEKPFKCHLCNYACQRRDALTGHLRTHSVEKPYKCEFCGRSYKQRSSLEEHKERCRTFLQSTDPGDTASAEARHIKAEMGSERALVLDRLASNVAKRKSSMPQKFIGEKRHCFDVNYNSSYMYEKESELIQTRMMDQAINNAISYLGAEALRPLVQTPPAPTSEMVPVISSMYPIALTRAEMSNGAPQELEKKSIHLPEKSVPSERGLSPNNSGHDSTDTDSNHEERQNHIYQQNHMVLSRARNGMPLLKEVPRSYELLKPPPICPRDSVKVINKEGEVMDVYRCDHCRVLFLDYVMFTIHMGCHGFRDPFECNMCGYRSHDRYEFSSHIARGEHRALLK
T2 sequence (Q96SW2 whole entry): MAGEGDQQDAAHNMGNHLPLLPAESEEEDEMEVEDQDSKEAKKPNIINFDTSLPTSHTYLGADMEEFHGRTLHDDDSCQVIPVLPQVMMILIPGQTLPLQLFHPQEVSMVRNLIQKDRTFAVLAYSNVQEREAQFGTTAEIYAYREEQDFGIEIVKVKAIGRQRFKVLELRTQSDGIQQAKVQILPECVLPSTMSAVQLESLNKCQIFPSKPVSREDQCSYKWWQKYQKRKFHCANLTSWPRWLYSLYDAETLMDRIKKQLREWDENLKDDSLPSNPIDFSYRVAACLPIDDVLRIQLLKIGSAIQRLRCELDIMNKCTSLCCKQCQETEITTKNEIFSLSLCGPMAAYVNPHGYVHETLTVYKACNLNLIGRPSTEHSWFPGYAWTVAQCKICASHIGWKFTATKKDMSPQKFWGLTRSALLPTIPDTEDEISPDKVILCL
T2 sequence (Q16531 whole entry partner): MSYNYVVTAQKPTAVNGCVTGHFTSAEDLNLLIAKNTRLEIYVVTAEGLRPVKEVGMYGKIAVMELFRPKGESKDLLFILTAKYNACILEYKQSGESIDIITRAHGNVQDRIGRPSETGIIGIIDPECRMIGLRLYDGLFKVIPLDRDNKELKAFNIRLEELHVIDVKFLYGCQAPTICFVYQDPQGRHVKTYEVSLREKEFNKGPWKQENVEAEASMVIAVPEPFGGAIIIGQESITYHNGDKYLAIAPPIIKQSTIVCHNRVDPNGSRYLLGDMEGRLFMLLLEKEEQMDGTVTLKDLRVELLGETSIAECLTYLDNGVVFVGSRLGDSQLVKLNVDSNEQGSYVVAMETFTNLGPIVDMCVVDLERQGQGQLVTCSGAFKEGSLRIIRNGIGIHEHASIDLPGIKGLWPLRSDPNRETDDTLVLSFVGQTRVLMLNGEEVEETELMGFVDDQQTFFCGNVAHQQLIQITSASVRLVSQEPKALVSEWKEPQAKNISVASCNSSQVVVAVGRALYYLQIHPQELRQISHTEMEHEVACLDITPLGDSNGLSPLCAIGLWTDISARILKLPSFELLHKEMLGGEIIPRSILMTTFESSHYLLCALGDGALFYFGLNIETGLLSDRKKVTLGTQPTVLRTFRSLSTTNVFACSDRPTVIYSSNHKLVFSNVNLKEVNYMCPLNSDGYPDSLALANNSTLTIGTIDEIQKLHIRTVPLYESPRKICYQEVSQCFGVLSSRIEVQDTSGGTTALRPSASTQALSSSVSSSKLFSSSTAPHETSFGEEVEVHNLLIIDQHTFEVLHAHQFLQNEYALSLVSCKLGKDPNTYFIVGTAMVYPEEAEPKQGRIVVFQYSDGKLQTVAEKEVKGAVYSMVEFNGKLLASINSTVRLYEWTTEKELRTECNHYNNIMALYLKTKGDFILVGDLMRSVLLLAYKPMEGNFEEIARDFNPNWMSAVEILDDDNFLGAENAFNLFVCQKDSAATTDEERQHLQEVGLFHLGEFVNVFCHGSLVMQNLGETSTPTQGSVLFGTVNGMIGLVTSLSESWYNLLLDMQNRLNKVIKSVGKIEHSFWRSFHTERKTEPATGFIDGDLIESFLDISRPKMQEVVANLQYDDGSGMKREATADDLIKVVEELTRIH
T1 sequence (Q13422 whole entry): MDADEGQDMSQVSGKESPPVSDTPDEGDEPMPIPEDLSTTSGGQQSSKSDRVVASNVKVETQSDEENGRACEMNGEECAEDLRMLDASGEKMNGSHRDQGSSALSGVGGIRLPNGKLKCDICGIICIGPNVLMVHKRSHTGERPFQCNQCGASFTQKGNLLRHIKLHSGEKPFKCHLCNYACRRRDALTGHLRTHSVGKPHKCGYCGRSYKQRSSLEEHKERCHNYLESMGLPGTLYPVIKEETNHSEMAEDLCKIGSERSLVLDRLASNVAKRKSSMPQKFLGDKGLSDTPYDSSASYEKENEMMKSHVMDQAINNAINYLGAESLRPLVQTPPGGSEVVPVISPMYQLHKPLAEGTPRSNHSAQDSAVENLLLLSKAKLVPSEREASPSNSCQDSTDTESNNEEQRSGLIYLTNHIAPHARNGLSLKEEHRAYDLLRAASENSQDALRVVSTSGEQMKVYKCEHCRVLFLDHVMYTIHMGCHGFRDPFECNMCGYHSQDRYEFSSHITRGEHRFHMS
T1 sequence (Q96SW2 whole entry): as the sequence (Q96SW2 whole entry) above
T1 sequence (Q16531 whole entry partner): as the sequence (Q16531 whole entry partner) above

IC50 [1] | IC50 [2] | IC50 [6] | IC50 [8] | IC50 [11] | IC50 [13] | IC50 [14] | DC50 [15] | Dmax [15] | DC50 [16] | Dmax [16] | Compound | apoptosis (in words) [3] | apoptosis rate ([4]; MV-4-11, 1 µM) | apoptosis rate ([4]; MV-4-11, 10 µM) | IC50 [5] | IC50 [7] | IC50 [9] | IC50 [10] | IC50 [12] | other results
> 33000 nM | > 33000 nM | 9.11 µM | 1.24 µM | 7.37 µM | 198 nM | 313 nM | 96 nM | 90.3% | 57 nM | 92.1% | CN1CCN(Cc2cccc(C(=O)NC3CCC(=O)NC3=O)c2F)C(=O)C1 (stereo not drawn) [MGD-C9, N-(2,6-dioxopiperidin-3-yl)-2-fluoro-3-((4-methyl-2-oxopiperazin-1-yl)methyl)benzamide] | significantly induced apoptosis | 26.0% | 40.7% | 2.03 µM | 10.5 µM | 5.03 µM | 0.33 µM | 1.25 µM | reduction in IKZF1 ([15]; 8 h): > 60%; reduction in IKZF3 ([16]; 8 h): > 70%
> 33000 nM | > 33000 nM | 19.3 µM | 3.83 µM | 10.3 µM | 676 nM | 638 nM | 249 nM | 89.4% | 110 nM | 86.4% | CN1CCN(Cc2cccc(C(=O)NC3CCC(=O)NC3=O)c2)CC1 (stereo not drawn) [MGD-A7, N-(2,6-dioxopiperidin-3-yl)-3-((4-methylpiperazin-1-yl)methyl)benzamide] | significantly induced apoptosis | 22.5% | 36.6% | 4.03 µM | 13.2 µM | 6.77 µM | 1.24 µM | 3.34 µM | reduction in IKZF1 ([15]; 12 h): > 60%; reduction in IKZF3 ([16]; 12 h): > 80%
